Results as given in ChEMBL document CHEMBL1201862, “PubChem BioAssay data set” (2004).
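Protocol summary: plate cells (96-well), add compound at 5 concentrations, incubate 48 h, interpolate endpoints linearly. The concentration for 50% growth inhibition is given as GI50.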 Active and inactive are the calls of the source. Cut-off read from the data, not from the text of the source: active = GI50 up to about 1.1 µM and inactive = higher.

Legend:
Assay in all cases: NCI-60 cell line screen, 48 h
SK-MEL-28 = test system: SK-MEL-28
COLO 205 = test system: COLO 205
OVCAR-3 = test system: OVCAR-3
A549 = test system: A549
CCRF-CEM = test system: CCRF-CEM
U-251 = test system: U-251
DU-145 = test system: DU-145
OVCAR-5 = test system: OVCAR-5
MOLT-4 = test system: MOLT-4
Hs-578T = test system: Hs-578T
NCI-H226 = test system: NCI-H226
A498 = test system: A498
HCT-116 = test system: HCT-116
MCF7 = test system: MCF7
OVCAR-8 = test system: OVCAR-8
SF-539 = test system: SF-539
HT-29 = test system: HT-29
HCT-15 = test system: HCT-15
SN12C = test system: SN12C
PC-3 = test system: PC-3
SF-268 = test system: SF-268
UO-31 = test system: UO-31
SNB-19 = test system: SNB-19
NCI-H460 = test system: NCI-H460
TK-10 = test system: TK-10
SNB-75 = test system: SNB-75
SW-620 = test system: SW-620
BT-549 = test system: BT-549
SK-MEL-5 = test system: SK-MEL-5
CAKI-1 = test system: CAKI-1
HOP-62 = test system: HOP-62
K562 = test system: K562
SK-OV-3 = test system: SK-OV-3
MDA-N = test system: MDA-N
HOP-92 = test system: HOP-92
T47D = test system: T47D
HL-60 = test system: HL-60
HCC 2998 = test system: HCC 2998
SK-MEL-2 = test system: SK-MEL-2
786-0 = test system: 786-0
OVCAR-4 = test system: OVCAR-4
ACHN = test system: ACHN
SF-295 = test system: SF-295
M14 = test system: M14
LOX IMVI = test system: LOX IMVI
MDA-MB-435 = test system: MDA-MB-435
SR = test system: SR
NCI-H522 = test system: NCI-H522
RPMI-8226 = test system: RPMI-8226
RXF 393 = test system: RXF 393
NCI-H23 = test system: NCI-H23
EKVX = test system: EKVX
MDA-MB-231 = test system: MDA-MB-231
IGROV-1 = test system: IGROV-1
KM12 = test system: KM12
Malme-3M = test system: Malme-3M
NCI/ADR-RES = test system: NCI/ADR-RES
UACC-62 = test system: UACC-62
UACC-257 = test system: UACC-257

CS(=O)(=O)C(=Cc1ccccc1Cl)S(C)(=O)=O
GI50 (SK-MEL-28): > 100 µM (inactive)
GI50 (COLO 205): > 100 µM (inactive)
GI50 (OVCAR-3): > 100 µM (inactive)
GI50 (A549): > 100 µM (inactive)
GI50 (CCRF-CEM): 25.5 µM (inactive)
GI50 (U-251): > 100 µM (inactive)
GI50 (DU-145): > 100 µM (inactive)
GI50 (OVCAR-5): > 100 µM (inactive)
GI50 (MOLT-4): > 100 µM (inactive)
GI50 (Hs-578T): > 91.2 µM (inactive)
GI50 (NCI-H226): > 100 µM (inactive)
GI50 (A498): > 100 µM (inactive)
GI50 (HCT-116): 31.1 µM (inactive)
GI50 (MCF7): > 40.3 µM (inactive)
GI50 (OVCAR-8): > 100 µM (inactive)
GI50 (SF-539): > 100 µM (inactive)
GI50 (HT-29): > 100 µM (inactive)
GI50 (HCT-15): > 100 µM
GI50 (SN12C): > 100 µM (inactive)
GI50 (PC-3): > 100 µM (inactive)
GI50 (SF-268): > 100 µM (inactive)
GI50 (UO-31): > 100 µM (inactive)
GI50 (SNB-19): > 100 µM (inactive)
GI50 (NCI-H460): > 100 µM (inactive)
GI50 (TK-10): > 100 µM (inactive)
GI50 (SNB-75): > 100 µM (inactive)
GI50 (SW-620): > 66.4 µM (inactive)
GI50 (BT-549): > 100 µM (inactive)
GI50 (SK-MEL-5): > 92 µM (inactive)
GI50 (CAKI-1): > 100 µM (inactive)
GI50 (HOP-62): > 100 µM (inactive)
GI50 (K562): 3.7 µM (inactive)
GI50 (SK-OV-3): > 100 µM (inactive)
GI50 (MDA-N): > 46.5 µM (inactive)
GI50 (HOP-92): > 100 µM (inactive)
GI50 (T47D): > 100 µM (inactive)
GI50 (HL-60): 1.14 µM (inactive)
GI50 (HCC 2998): > 100 µM (inactive)
GI50 (SK-MEL-2): > 100 µM (inactive)
GI50 (786-0): > 100 µM (inactive)
GI50 (OVCAR-4): > 100 µM (inactive)
GI50 (ACHN): > 100 µM (inactive)
GI50 (SF-295): > 46.5 µM (inactive)
GI50 (M14): > 80.2 µM (inactive)
GI50 (LOX IMVI): > 100 µM (inactive)
GI50 (MDA-MB-435): > 27.8 µM (inactive)
GI50 (SR): > 100 µM (inactive)
GI50 (NCI-H522): > 100 µM (inactive)
GI50 (RPMI-8226): > 100 µM (inactive)
GI50 (RXF 393): > 100 µM (inactive)
GI50 (NCI-H23): > 100 µM (inactive)
GI50 (EKVX): > 100 µM (inactive)
GI50 (MDA-MB-231): > 100 µM (inactive)
GI50 (IGROV-1): > 100 µM (inactive)
GI50 (KM12): > 46.5 µM (inactive)
GI50 (Malme-3M): > 100 µM (inactive)
GI50 (NCI/ADR-RES): > 100 µM (inactive)
GI50 (UACC-62): 24.4 µM (inactive)
GI50 (UACC-257): > 100 µM (inactive)

O=C1Nc2ccccc2/C1=C/c1c(Cl)[nH]c2ccc(O)cc12
GI50 (SK-MEL-28): 7.05 µM (inactive)
GI50 (COLO 205): 2.07 µM (inactive)
GI50 (OVCAR-3): 1.77 µM (inactive)
GI50 (A549): 4.54 µM (inactive)
GI50 (CCRF-CEM): 1.4 µM (inactive)
GI50 (U-251): 1.33 µM (inactive)
GI50 (DU-145): 1.78 µM (inactive)
GI50 (OVCAR-5): 4.04 µM (inactive)
GI50 (MOLT-4): 1 µM (active)
GI50 (Hs-578T): 3.99 µM (inactive)
GI50 (NCI-H226): 1.08 µM (active)
GI50 (A498): 2.31 µM (inactive)
GI50 (HCT-116): 0.719 µM (active)
GI50 (MCF7): 1.17 µM (inactive)
GI50 (OVCAR-8): 2.93 µM (inactive)
GI50 (SF-539): 0.544 µM (active)
GI50 (HT-29): 3.16 µM (inactive)
GI50 (HCT-15): 0.971 µM
GI50 (SN12C): 0.641 µM (active)
GI50 (PC-3): 2.32 µM (inactive)
GI50 (SF-268): 3.77 µM (inactive)
GI50 (UO-31): 3.9 µM (inactive)
GI50 (SNB-19): 3.21 µM (inactive)
GI50 (NCI-H460): 3.61 µM (inactive)
GI50 (TK-10): 10.7 µM (inactive)
GI50 (SNB-75): 1.95 µM (inactive)
GI50 (SW-620): 1.18 µM (inactive)
GI50 (BT-549): 4.84 µM (inactive)
GI50 (SK-MEL-5): 1.21 µM (inactive)
GI50 (CAKI-1): 3.74 µM (inactive)
GI50 (HOP-62): 2.59 µM (inactive)
GI50 (K562): 0.649 µM (active)
GI50 (SK-OV-3): 1.71 µM (inactive)
GI50 (MDA-N): 0.194 µM (active)
GI50 (HOP-92): 5.69 µM (inactive)
GI50 (T47D): 3.02 µM (inactive)
GI50 (HL-60): 0.836 µM (active)
GI50 (HCC 2998): 11.7 µM (inactive)
GI50 (SK-MEL-2): 1.55 µM (inactive)
GI50 (786-0): 3.27 µM (inactive)
GI50 (OVCAR-4): 3.94 µM (inactive)
GI50 (ACHN): 4.7 µM (inactive)
GI50 (SF-295): 2.79 µM (inactive)
GI50 (M14): 1.36 µM (inactive)
GI50 (LOX IMVI): 2.75 µM (inactive)
GI50 (MDA-MB-435): 0.214 µM (active)
GI50 (SR): 0.177 µM (active)
GI50 (NCI-H522): 1.3 µM (inactive)
GI50 (RPMI-8226): 3.43 µM (inactive)
GI50 (RXF 393): 2.36 µM (inactive)
GI50 (NCI-H23): 2.63 µM (inactive)
GI50 (EKVX): 3.28 µM (inactive)
GI50 (MDA-MB-231): 1.79 µM (inactive)
GI50 (IGROV-1): 1.69 µM (inactive)
GI50 (KM12): 1.37 µM (inactive)
GI50 (Malme-3M): 0.736 µM (active)
GI50 (NCI/ADR-RES): 0.944 µM (active)
GI50 (UACC-62): 0.681 µM (active)
GI50 (UACC-257): 10.6 µM (inactive)
